This assay addresses T1, human RXFP1 (Homo sapiens, UniProt Q9HBX9).
T1 sequence (Q9HBX9 1-757): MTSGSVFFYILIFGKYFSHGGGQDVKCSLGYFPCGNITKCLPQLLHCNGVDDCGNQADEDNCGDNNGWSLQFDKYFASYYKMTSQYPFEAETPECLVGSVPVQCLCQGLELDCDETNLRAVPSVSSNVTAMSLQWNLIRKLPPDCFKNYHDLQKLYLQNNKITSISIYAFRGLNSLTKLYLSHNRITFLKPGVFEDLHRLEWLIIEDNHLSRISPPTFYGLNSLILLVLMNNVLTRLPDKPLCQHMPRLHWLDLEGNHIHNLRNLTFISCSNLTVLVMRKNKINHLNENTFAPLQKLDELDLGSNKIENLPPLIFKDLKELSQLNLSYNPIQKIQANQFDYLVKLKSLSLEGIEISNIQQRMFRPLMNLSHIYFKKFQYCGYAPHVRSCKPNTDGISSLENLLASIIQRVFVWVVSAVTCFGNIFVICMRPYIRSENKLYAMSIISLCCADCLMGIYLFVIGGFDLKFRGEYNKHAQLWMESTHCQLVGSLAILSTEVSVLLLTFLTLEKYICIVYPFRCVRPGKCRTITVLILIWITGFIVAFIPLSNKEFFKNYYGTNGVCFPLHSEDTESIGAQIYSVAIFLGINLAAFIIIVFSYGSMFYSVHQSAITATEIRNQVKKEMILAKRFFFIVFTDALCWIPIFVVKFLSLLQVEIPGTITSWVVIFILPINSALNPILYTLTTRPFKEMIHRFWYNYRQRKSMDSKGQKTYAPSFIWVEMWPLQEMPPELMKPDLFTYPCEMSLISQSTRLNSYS
In words: RXFP1 Hu cAMP (Test A). The format is cell-based. Set-up: expressed in transfected cells; host or cells: Jump-In T-REx CHO-K1 cells (ThermoFisher), induced with 10 ng/ml doxycycline for 24 h. The essentials:
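Competitive HTRF cAMP readout (2 h, room temperature) in CHO-K1 cells stably expressing human RXFP1, induced with 10 ng/ml doxycycline for 24 h; IBMX 0.5 mM final.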

Setting [1] is: RXFP1 Hu cAMP, read-out: Test A EC50.

Read-outs that look alike come from different tables or passages of the source.

The record followed here is patent publication US11667602B2, “Compounds and their use” (AstraZeneca AB, priority 2020, dated 2023).

The EC50 is the concentration at which the effect is half-maximal.

Consider `COc1cc(F)c(O[C@H]2CC[C@@H](C(=O)O)CC2)cc1C(=O)N[C@H]1[C@@H](C(=O)Nc2cccc(S(=O)(=O)C(F)(F)F)c2)[C@@H]2C=C[C@H]1C2` (racemic) [Example 495], for which the “Test A Sinf” value (RXFP1 Hu cAMP) amounted to 98%. The EC50 under setting [1] came to 0.12 µM.
On the same counts, the results for `COc1cc(F)c(-c2cccc(C(=O)O)c2)cc1C(=O)N[C@@H]1CCC[C@@H]1C(=O)Nc1cccc(S(=O)(=O)C(F)(F)F)c1` [Example 317, 2′-Fluoro-4′-methoxy-5′-(((1R,2S)-2-((3-((trifluoromethyl)sulfonyl)phenyl)carbamoyl)cyclopentyl)carbamoyl)-[1,1′-biphenyl]-3-carboxylic acid] are 75% and 1.2 µM.
Take `COc1cc(F)c(O[C@H]2CC[C@@](C)(C(=O)O)CC2)cc1C(=O)N[C@@H]1[C@@H]2CC[C@@H](C2)[C@@H]1C(=O)NCC(C)(C)C` [Example 370]: the “Test A Sinf” value (RXFP1 Hu cAMP) amounted to 102%. Where the note is “Test A EC50, RXFP1 Hu cAMP”, the EC50 is 0.024 µM.
With `COc1cc(C#N)c(O[C@H]2CC[C@@](C)(C(=O)O)CC2)cc1C(=O)N[C@@H]1[C@H]2CC[C@H](C2)[C@@H]1C(=O)NCc1ccc(F)c(F)c1` [Example 123], where the note is “RXFP1 Hu cAMP”, the “Test A Sinf” value is on record as 107%. The EC50 under setting [1] is 0.72 µM.
As for `COc1cc(C#N)c(O[C@H]2CC[C@@](C)(C(=O)O)CC2)cc1C(=O)N[C@@H]1[C@H]2CC[C@H](C2)[C@@H]1C(=O)NC(C)(C)c1ccccc1` [Example 108], where the note is “RXFP1 Hu cAMP”, the “Test A Sinf” value came to 106%. Under setting [1], the EC50 stood at 0.34 µM.
For “(1R,4s)-4-(2-Fluoro-5-(((1S*,2S*,5S*)-2-hydroxy-5-((3-((trifluoromethyl)sulfonyl)phenyl)carbamoyl)cyclopentyl)carbamoyl)-4-methoxyphenoxy)-1-methylcyclohexane-1-carboxylic acid [Example 529]”, for the setting “RXFP1 Hu cAMP”, the “Test A Sinf” value was determined as 96%.
In the case of `COc1cc(F)c(O[C@H]2CC[C@@](C)(C(=O)O)CC2)cc1C(=O)N[C@@H]1CCO[C@@H]1C(=O)Nc1cccc(S(=O)(=O)C(F)(F)F)c1` [Example 356], the “Test A Sinf” value (RXFP1 Hu cAMP) came to 119%.
As for `COc1cc(F)c(-c2ccc(C(=O)O)s2)cc1C(=O)N[C@H]1[C@@H](C(=O)Nc2cccc(S(=O)(=O)C(F)(F)F)c2)[C@@H]2C=C[C@H]1C2` (racemic) [Example 285], the “Test A Sinf” value (RXFP1 Hu cAMP) worked out at 75%. The EC50 under setting [1] worked out at 0.3 µM.
In the case of “(1R,4s)-4-(2-Cyano-4-methoxy-5-(((1R*,2S*,3R*,4S*)-3-(((1-methylcyclobutyl)methyl)carbamoyl)bicyclo[2.2.2]oct-5-en-2-yl)carbamoyl)phenoxy)-1-methylcyclohexane-1-carboxylic acid [Example 541]”, the “Test A Sinf” value (RXFP1 Hu cAMP) was 100%.
For the molecule `COc1cc(F)c(-c2c[nH]c(C(=O)O)c2)cc1C(=O)N[C@H]1[C@@H](C(=O)Nc2cccc(S(=O)(=O)C(F)(F)F)c2)[C@@H]2C=C[C@H]1C2` (racemic) [Example 229], the “Test A Sinf” value (RXFP1 Hu cAMP) turned out to be 55%. The EC50 under setting [1] came out at 3.3 µM.
With “(1R,4s)-4-(2-Fluoro-4-methoxy-5-(((1S*,2R*,4R*)-4-methoxy-2-(neopentylcarbamoyl)cyclopentyl)carbamoyl)phenoxy)-1-methylcyclohexane-1-carboxylic acid [Example 547]”, where the note is “RXFP1 Hu cAMP”, the “Test A Sinf” value stood at 114%.
Regarding `COc1cc(F)c(O[C@H]2CC[C@@](CO)(C(=O)O)CC2)cc1C(=O)N[C@H]1[C@@H](C(=O)NCC2(C)CCC2)[C@H]2CC[C@@H]1O2` (racemic) [Example 332], the “Test A Sinf” value (RXFP1 Hu cAMP) is on record as 103%.
For the molecule `COc1cc(F)c(-c2ccnc(C(=O)O)c2)cc1C(=O)N[C@H]1[C@@H](C(=O)Nc2cccc(S(=O)(=O)C(F)(F)F)c2)[C@@H]2C=C[C@H]1C2` (racemic) [Example 272, rac-4-(2-Fluoro-4-methoxy-5-(((1R,2R,3S,4S)-3-((3-((trifluoromethyl)sulfonyl)phenyl)carbamoyl)bicyclo[2.2.1]hept-5-en-2-yl)carbamoyl)phenyl)picolinic acid], the “Test A Sinf” value (RXFP1 Hu cAMP) is 107%. The EC50 under setting [1] was 4.9 µM.
